Source: publication PMC8619068, “Transformation of Tetracycline by Manganese Peroxidase from Phanerochaete chrysosporium” (Molecules, 2021)

System: T1, manganese peroxidase (MnP)
T1 construct: gene MNP1; native secreted enzyme purified from culture fluid (ultrafiltration, DEAE, Sephadex G-75); single band on SDS-PAGE
Test: HPLC-UV ([…] nm) of residual tetracycline; non-linear Michaelis-Menten fit
Assay type: biochemical, Phanerodontia chrysosporium
Settings: MnSO4 0.1 mmol/L, H2O2 0.2 mmol/L, MnP 40 U/L, tartrate buffer 0.05 mol/L pH 4.5, 37 °C (general removal assay); oxidation mediated by Mn3+

`CN(C)[C@@H]1C(=O)C(C(N)=O)=C(O)[C@@]2(O)C(=O)C3=C(O)c4c(O)cccc4[C@@](C)(O)[C@H]3C[C@@H]12` [TC, tetracycline] gave a Km of 238.23 mg/L.
